Measurements: patent US20030072726A1, “Skin lightening agents” (priority 1999, published 2003)
≈ marks a conversion by molar mass, not a printed value. Where two headings read alike, the source gives them in different places.

Experiments:
B16-F1 cells = experiment: Melanogenesis inhibition (skin lightening) assay in cultured melanocyte cells, secreted melanin OD405; type: cell-based; set-up: Melanogenesis Inhibition Activity: scale not given here; conditions: for Melanogenesis Inhibition Activity: B16-F1 cells, 96 hours
Method: These were conducted using cultured melanocyte cells exposed to dilutions of the best materials, and compared with kojic acid, a brown skin lightener. The degree of melanin production was inversely proportional to the skin lightener activity. Any cytotoxic effect of the test materials is reflected in a decrease in melanin formation. Each 96 well assay plate included a solvent control and a blank control. […] When the cell cultures were 50 to 80% confluent, the growth medium was removed from the flasks and the cultures rinsed with 10 ml of HBSS. 2 ml of trypsin/EDTA solution was added and the flasks were incubated at 37° C.+/−1° C. for 2 to 5 minutes. When the cells started to dislodge, the flask was rapped sharply against the palm of the hand and approximately 5 ml of assay medium added to neutralise the trypsin. The concentration of cells was determined by counting an aliquot of the stock cell suspension in a haemocytometer. A seeding suspension of 5×10^4 cells/ml was prepared in assay medium. One hundred microlitres of the seeding cell suspension was added to the appropriate wells on each 96 well plate. One hundred microlitres of growth medium was added to the outer wells to maintain humidity. The cells were incubated at 37+/−1° C. in a humidified atmosphere containing 5+/−1% CO2 in air for 24 hours. Based on the information available for the test article, eight decreasing doses were selected and used in the assay. […] In the case of the mixture of protocatechuic acid and arbutin, a 1 to 1 w/w mixture of each was used in each assay with the concentration of each in the highest dose assay being 2.5 mg/ml, and then pro rata in the dilutions assayed in the other 7 assays. […] The test article and positive control was tested by treating six wells per dilution of B16-F1 cells seeded approximately 24 hours earlier. Prior to treatment the medium was removed, and 200 μl of the pre-warmed (37 +/−1° C.) test article dilutions, positive control dilutions and solvent control, were added to the appropriate wells. All test article concentrations were dosed into a single outer well (200 μl) of the corresponding plate to serve as a turbidity control. The remaining wells around the edge of the plate, designated as blanks, received 200 μl of assay medium prior to incubation. Following dosing, the plates were incubated at 37+/−1° C. for 96 hours +/−2 hours. After exposure, 150 μl of each treatment solution (containing any secreted melanin) was removed and transferred to the corresponding wells of a new 96 well plate (melanin production plate). Turbidity controls were also transferred. The absorbance of the melanin present in the melanin production plates was measured at 405 nm (OD405) with an Anthos 2010™microplate reader. The mean of the six OD405 values for each concentration of test article and positive control was calculated. The turbidity control values were subtracted to obtain a correct OD405 value. The mean of the six OD405 values for the corresponding negative or solvent control were calculated by subtracting the blank control value. The corrected OD405 values of the test article or positive control was divided by the corrected OD405 value for the negative or solvent control to obtain a melanin production ratio.

[1] = Taste, odour and colour of compounds of the invention; type: physicochemical; conditions: determined at effective concentrations
[2] = Solubilities of compounds of the invention; type: physicochemical
[3] = ethylene glycol, organic solvent or mixture, read-out: Solubility Ethylene Clycol
[4] = aqueous buffer, water, pH 7.0, read-out: Solubility Water (pH 7.0)
[5] = ethanol, organic solvent or mixture, read-out: Solubility Ethanol
[6] = oil, oil or lipid, read-out: Solubility Oil

| SMILES | Melanogenesis Inhibition Activity (B16-F1 cells; 0.015 mg/ml) | Melanogenesis Inhibition Activity (B16-F1 cells; 0.05 mg/ml) | Melanogenesis Inhibition Activity (B16-F1 cells; 0.15 mg/ml) | Melanogenesis Inhibition Activity (B16-F1 cells; 0.5 mg/ml) | Melanogenesis Inhibition Activity (B16-F1 cells; 1.5 mg/ml) | Melanogenesis Inhibition Activity (B16-F1 cells; 5 mg/ml) | Melanogenesis Inhibition Activity (B16-F1 cells; 15 mg/ml) | Taste/Odour [1] | Colour (Solution in Ethanol) [1] | solubility [2, 3] [mg/mL] | solubility [2, 4] [mg/mL] | solubility [2, 5] [mg/mL] | solubility [2, 6] [mg/mL] | skin lightening effect when used together with another skin lightening agent (B16-F1 cells; arbutin used together with protocatechuic acid) |
| --- | --- | --- | --- | --- | --- | --- | --- | --- | --- | --- | --- | --- | --- | --- |
| O=c1cc(CO)occ1O [Kojic acid, reference compound] | 0 | 0 | 0 | 2 | 57 | 170 | 255 | – | – | – | – | – | – | – |
| CCc1ccc(O)c(OC)c1 [Ethylguaiacol, 4-Ethyl-2-methoxyphenol] | 2 | 8 | 14 | 17 | 0 | 0 | 0 | Smoky | Colourless | 250 (≈ 1640 mM) | – | – | – | – |
| C=Cc1ccc(O)c(OC)c1 [Vinylguaiacol, 4-Vinyl-2-methoxyphenol] | 3 | 6 | 10 | 1 | 0 | 0 | 0 | Cloves | Colourless | – | > 2 | > 100 | > 50 | – |
| O=C(O)c1ccc(O)c(O)c1 [Protocatechuic acid, 3,4-Dihydroxybenzoic acid] | 0.5 | 2 | 1 | 3 | 7 | 0 | 0 | None | Colourless | 250 (≈ 1620 mM) | > 300 | > 500 | < 0.2 | synergistic skin lightening effect |
| OC[C@H]1O[C@@H](Oc2ccc(O)cc2)[C@H](O)[C@@H](O)[C@@H]1O [Arbutin, reference compound] | 0 | 1 | 4 | 11 | 17 | 14 | 11 | – | – | – | – | – | – | – |
